From PubChem BioAssay (NCI)
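Cultured in 96-well plates, cells were exposed to test compound for 48 hours across five concentrations. GI50 marks 50% less growth. TGI is the concentration that stops growth completely.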

tested on: MDA-MB-468 breast; experiment: growth of human tumour cells (NCI), 48 h

Going from O=C(CSc1nc2sc3c(c2c(=O)n1-c1ccc(Cl)cc1)CCCC3)NNC(=O)Nc1ccc(Cl)c(C(F)(F)F)c1 to O=c1c2c3c(sc2n2c(-c4cc(-c5ccccc5)no4)nnc2n1Cc1ccccc1)CCCC3, the GI50 rises from 1.55 µM to 14.6 µM (9.4-fold).

First: Oc1ccccc1/C=N/Nc1nc(N/N=C/c2ccccc2O)nc(N2CCOCC2)n1
Second: Clc1ccc(/C=C/c2cc(N3CCOCC3)c3cc(Cl)c(Cl)cc3n2)cc1
The GI50 of the first is lower: 4.11 µM for the first, > 100 µM for the second.

First: CC(=O)Nc1ccc(/C=C/C(=O)c2ccccc2)cc1
Second: Cc1ccc(NC(=O)Cc2ccc(/C=C/C(=O)c3ncc[nH]3)cc2)cc1
The GI50 of the first is 3.5-fold higher: 11.7 µM for the first, 3.3 µM for the second.

Cc1cc(NCCCNc2ccnc3cc(Cl)ccc23)nc(N2CCN(C)CC2)n1 and COc1cc(-c2nc3sccn3c2-c2ccnc(NCCNS(=O)(=O)c3ccc(Cl)cc3)n2)ccc1F are within 1.5-fold of each other in GI50: 1.76 µM for the first, 2.48 µM for the second.

Clc1cc2c(cc1Cl)Oc1cc(Cl)c(Cl)cc1O2 and N#Cc1cccc(OCc2nc(N)nc(N)c2-c2ccc(Cl)c(Cl)c2)c1 cannot be ordered by GI50: > 0.625 µM for the first, 3.08 µM for the second.

First: COc1cc2cc(C(=O)CCC(=O)O)sc2cc1OC
Second: COc1cc(C(=O)N2N=C(c3ccc(S(C)(=O)=O)cc3)CC2c2ccco2)cc(OC)c1OC (stereo not given)
The GI50 of the first is higher: > 100 µM for the first, 2.49 µM for the second.

First: CCCCCc1nc2c(c3c1CCCC3)CCCC2
Second: CCCc1cc(O)c2c3c(c(=O)oc2c1)CN(C)CC3
The GI50 of the first is 5.9-fold lower: 4.13 µM for the first, 24.2 µM for the second.

Going from CCN1/C(=C/C=C/c2n(-c3ccccc3)c3ccc(-c4nc5ccccc5s4)cc3[n+]2CC)N(c2ccccc2)c2ccc(-c3nc4ccccc4s3)cc21 to c1ccc(C2CC(c3cccc(Nc4ccncc4)c3)=NN2c2ccccc2)cc1 (stereo not given), the GI50 rises from 0.283 µM to 1.49 µM (5.3-fold).

Going from N/C(=C\C(=O)n1nc(-c2ccccc2)cc1N)c1ccccc1 to N#C/C(=N\Nc1ccc(Cl)cc1)C(=O)Nc1cc(-c2ccccc2)nn1-c1ccccc1, the GI50 falls from 5.54 µM to 1.84 µM (3-fold).

First: CC(=O)N1N=C(c2ccc(Nc3nc(Nc4ccc(Cl)cc4)nc(Nc4ccc(Cl)cc4)n3)cc2)CC1c1ccc([N+](=O)[O-])cc1 (stereo not given)
Second: COc1ccc(C2CC(c3cccc(Nc4ccncc4)c3)=NN2c2ccc(Cl)cc2)cc1 (stereo not given)
The GI50 of the first is 2.1-fold higher: 3.08 µM for the first, 1.45 µM for the second.

First: Cn1cc(C2=C(c3cn(CCO)c4ccccc34)C(=O)NC2=O)c2ccccc21
Second: Cn1cc(C2=C(c3cccc(N)c3)C(=O)NC2=O)c2ccccc21
The GI50 of the first is lower: 2.52 µM for the first, > 18.2 µM for the second.

Going from CC(C)c1c(C(=O)Nc2ccccc2)c(-c2ccccc2)c(-c2ccc(F)cc2)n1CC[C@@H]1CC=CC(=O)O1 to O=C(Nc1ccc(F)cc1)Nc1ccccc1CNc1nc(Nc2ccc(OCCN3CCCC3)cc2)ncc1Cl, the GI50 falls from 1.83 µM to 1.12 µM (1.6-fold).

First: Nc1ccccc1-c1ccc([N+](=O)[O-])cc1
Second: O=c1ccc(N=Nc2ccc([N+](=O)[O-])cc2)ccc1O
The GI50 of the first is 3.5-fold higher: 13.4 µM for the first, 3.8 µM for the second.

First: Cn1ccnc1C(=O)/C=C/c1ccc(C(=O)Nc2ccc(S(F)(F)(F)(F)F)cc2)cc1
Second: CCOc1ccccc1NC(=O)c1cc2ccccc2cc1O
The GI50 of the first is 5.6-fold lower: 0.423 µM for the first, 2.38 µM for the second.

First: N#Cc1ncc(-c2ccc(C(F)(F)F)cc2)c(NCc2cc(C(F)(F)F)cc(C(F)(F)F)c2)n1
Second: CCOc1ccc(-c2cnnn2-c2nonc2-n2cccc2)cc1
The GI50 of the first is 21-fold higher: 2.56 µM for the first, 0.12 µM for the second.

CCCCCCc1cc2cc(-c3nc4ccccc4[nH]3)c(=Nc3ccccc3C)oc2cc1O and Cc1ccc2c(c1)c1nc3cc(C)c(C)cc3nc1n2CCN(C)C are within 1.5-fold of each other in GI50: 1.82 µM for the first, 1.39 µM for the second.

First: CC(C)Nc1ccc(Nc2ccccc2)cc1
Second: O=c1c2ccccc2c(Br)c(Br)c2ccccc12
The GI50 of the first is 1.6-fold higher: 4.45 µM for the first, 2.74 µM for the second.

First: CN(Cc1ccc(Cl)cc1)c1ccc(CO)c(Cl)c1
Second: O=S(=O)(Cc1ccc(Cl)cc1Cl)c1ccc(Cl)cc1
The GI50 of the first is 4-fold lower: 0.0657 µM for the first, 0.265 µM for the second.

First: CC/C(=C(/c1ccc(OCCN(C)C)cc1)c1ccc(OC(=O)CCC(=O)c2c(C)[nH]c(/C=C3\N=C(c4ccc[nH]4)C=C3OC)c2C)cc1)c1ccccc1
Second: CCN(CC)c1ccc(/C=C2/C[N+](C)(C)C/C(=C/c3ccc(N(CC)CC)cc3)C2=O)cc1
The GI50 of the first is 2.2-fold higher: 2.9 µM for the first, 1.32 µM for the second.

Going from Cc1cc2cc3cc(C)c(N(C)C)cc3[n+](C)c2cc1N(C)C to COc1cccc(C2C3=C(COC3=O)N(CCO)c3cc(OC)ccc32)c1 (stereo not given), the GI50 falls from 0.95 µM to 0.0365 µM (26-fold).

First: CN(c1cc2ncc(=O)[nH]c2cc1NC(N)=NCc1ccc(Cl)cc1)C1CCCCC1
Second: Oc1ccc(CN2CCC(N3CCOCC3)CC2)c2cccnc12
The GI50 of the first is 18-fold lower: 1.23 µM for the first, 22.6 µM for the second.

First: CC(C)[C@H]1CC[C@H]2[C@@H](CC[C@H]3[C@](C)(CN)CCC[C@]23C)C1
Second: O=C1C2C(C(=O)[N]1[Hg][c]1cccs1)C1(Cl)C(Cl)=C(Cl)C2(Cl)C1(Cl)Cl (stereo not given)
The GI50 of the first is 7.1-fold higher: 8.83 µM for the first, 1.25 µM for the second.

C/C=C/C/C=C/CCC(=O)[C@H]1O[C@H]1C(N)=O gave a GI50 of 11.7 µM.

First: O=C(CSc1nc2sc3c(c2c(=O)n1-c1ccc(Cl)cc1)CCCC3)NNC(=O)Nc1ccc(Cl)c(C(F)(F)F)c1
Second: O=c1c2c3c(sc2n2c(-c4cc(-c5ccccc5)no4)nnc2n1Cc1ccccc1)CCCC3
The TGI of the first is 12-fold lower: 3.66 µM for the first, 43.8 µM for the second.

First: Oc1ccccc1/C=N/Nc1nc(N/N=C/c2ccccc2O)nc(N2CCOCC2)n1
Second: Clc1ccc(/C=C/c2cc(N3CCOCC3)c3cc(Cl)c(Cl)cc3n2)cc1
The TGI of the first is lower: 35.9 µM for the first, > 100 µM for the second.

CC(=O)Nc1ccc(/C=C/C(=O)c2ccccc2)cc1 and Cc1ccc(NC(=O)Cc2ccc(/C=C/C(=O)c3ncc[nH]3)cc2)cc1 are within 1.5-fold of each other in TGI: 26 µM for the first, 23.4 µM for the second.

Compared with Cc1cc(NCCCNc2ccnc3cc(Cl)ccc23)nc(N2CCN(C)CC2)n1, COc1cc(-c2nc3sccn3c2-c2ccnc(NCCNS(=O)(=O)c3ccc(Cl)cc3)n2)ccc1F is higher in TGI: 5.97 µM for the first, > 100 µM for the second.

Clc1cc2c(cc1Cl)Oc1cc(Cl)c(Cl)cc1O2 and N#Cc1cccc(OCc2nc(N)nc(N)c2-c2ccc(Cl)c(Cl)c2)c1 cannot be ordered by TGI: > 0.625 µM for the first, > 100 µM for the second.

COc1cc2cc(C(=O)CCC(=O)O)sc2cc1OC and COc1cc(C(=O)N2N=C(c3ccc(S(C)(=O)=O)cc3)CC2c2ccco2)cc(OC)c1OC (stereo not given) cannot be ordered by TGI: > 100 µM for the first, > 26 µM for the second.

First: CCCCCc1nc2c(c3c1CCCC3)CCCC2
Second: CCCc1cc(O)c2c3c(c(=O)oc2c1)CN(C)CC3
The TGI of the first is 4.7-fold lower: 18.1 µM for the first, 85.2 µM for the second.

Going from CCN1/C(=C/C=C/c2n(-c3ccccc3)c3ccc(-c4nc5ccccc5s4)cc3[n+]2CC)N(c2ccccc2)c2ccc(-c3nc4ccccc4s3)cc21 to c1ccc(C2CC(c3cccc(Nc4ccncc4)c3)=NN2c2ccccc2)cc1 (stereo not given), the TGI falls from > 50 µM to 3.02 µM.

First: N/C(=C\C(=O)n1nc(-c2ccccc2)cc1N)c1ccccc1
Second: N#C/C(=N\Nc1ccc(Cl)cc1)C(=O)Nc1cc(-c2ccccc2)nn1-c1ccccc1
The TGI of the first is 9.5-fold higher: 56.3 µM for the first, 5.93 µM for the second.

First: CC(=O)N1N=C(c2ccc(Nc3nc(Nc4ccc(Cl)cc4)nc(Nc4ccc(Cl)cc4)n3)cc2)CC1c1ccc([N+](=O)[O-])cc1 (stereo not given)
Second: COc1ccc(C2CC(c3cccc(Nc4ccncc4)c3)=NN2c2ccc(Cl)cc2)cc1 (stereo not given)
The TGI of the first is higher: > 100 µM for the first, 2.95 µM for the second.

Compared with Cn1cc(C2=C(c3cn(CCO)c4ccccc34)C(=O)NC2=O)c2ccccc21, Cn1cc(C2=C(c3cccc(N)c3)C(=O)NC2=O)c2ccccc21 is higher in TGI: 10.8 µM for the first, > 25 µM for the second.

CC(C)c1c(C(=O)Nc2ccccc2)c(-c2ccccc2)c(-c2ccc(F)cc2)n1CC[C@@H]1CC=CC(=O)O1 and O=C(Nc1ccc(F)cc1)Nc1ccccc1CNc1nc(Nc2ccc(OCCN3CCCC3)cc2)ncc1Cl are within 1.5-fold of each other in TGI: 3.82 µM for the first, 2.89 µM for the second.

Compared with Nc1ccccc1-c1ccc([N+](=O)[O-])cc1, O=c1ccc(N=Nc2ccc([N+](=O)[O-])cc2)ccc1O is lower in TGI: > 100 µM for the first, 81.2 µM for the second.

First: Cn1ccnc1C(=O)/C=C/c1ccc(C(=O)Nc2ccc(S(F)(F)(F)(F)F)cc2)cc1
Second: CCOc1ccccc1NC(=O)c1cc2ccccc2cc1O
The TGI of the first is 1.9-fold higher: 13.8 µM for the first, 7.18 µM for the second.

Going from N#Cc1ncc(-c2ccc(C(F)(F)F)cc2)c(NCc2cc(C(F)(F)F)cc(C(F)(F)F)c2)n1 to CCOc1ccc(-c2cnnn2-c2nonc2-n2cccc2)cc1, the TGI falls from 7.38 µM to 0.495 µM (15-fold).

CCCCCCc1cc2cc(-c3nc4ccccc4[nH]3)c(=Nc3ccccc3C)oc2cc1O and Cc1ccc2c(c1)c1nc3cc(C)c(C)cc3nc1n2CCN(C)C are within 1.5-fold of each other in TGI: 3.74 µM for the first, 3.54 µM for the second.

Going from CC(C)Nc1ccc(Nc2ccccc2)cc1 to O=c1c2ccccc2c(Br)c(Br)c2ccccc12, the TGI falls from 19.7 µM to 9.55 µM (2.1-fold).

Compared with CN(Cc1ccc(Cl)cc1)c1ccc(CO)c(Cl)c1, O=S(=O)(Cc1ccc(Cl)cc1Cl)c1ccc(Cl)cc1 is 10-fold higher in TGI: 0.219 µM for the first, 2.19 µM for the second.

Compared with CC/C(=C(/c1ccc(OCCN(C)C)cc1)c1ccc(OC(=O)CCC(=O)c2c(C)[nH]c(/C=C3\N=C(c4ccc[nH]4)C=C3OC)c2C)cc1)c1ccccc1, CCN(CC)c1ccc(/C=C2/C[N+](C)(C)C/C(=C/c3ccc(N(CC)CC)cc3)C2=O)cc1 is 3.9-fold lower in TGI: 14 µM for the first, 3.57 µM for the second.

First: Cc1cc2cc3cc(C)c(N(C)C)cc3[n+](C)c2cc1N(C)C
Second: COc1cccc(C2C3=C(COC3=O)N(CCO)c3cc(OC)ccc32)c1 (stereo not given)
The TGI of the first is 11-fold higher: 13.5 µM for the first, 1.26 µM for the second.

First: CN(c1cc2ncc(=O)[nH]c2cc1NC(N)=NCc1ccc(Cl)cc1)C1CCCCC1
Second: Oc1ccc(CN2CCC(N3CCOCC3)CC2)c2cccnc12
The TGI of the first is 14-fold lower: 4.42 µM for the first, 60.6 µM for the second.

First: CC(C)[C@H]1CC[C@H]2[C@@H](CC[C@H]3[C@](C)(CN)CCC[C@]23C)C1
Second: O=C1C2C(C(=O)[N]1[Hg][c]1cccs1)C1(Cl)C(Cl)=C(Cl)C2(Cl)C1(Cl)Cl (stereo not given)
The TGI of the first is 8.7-fold higher: 23.5 µM for the first, 2.7 µM for the second.

For C/C=C/C/C=C/CCC(=O)[C@H]1O[C@H]1C(N)=O, the TGI was 25.9 µM.
